Experimental data as given in publication PMC10318456, “Selective inhibitors of the PSEN1–gamma-secretase complex” (The Journal of Biological Chemistry, 2023).

Assays:
Type in all cases: cell-based
[1] = target: T1, PSEN1 L166A–APH1A γ-secretase complex (Homo sapiens, UniProt P49768, L166A); experiment: Aβ40 secretion, MEF cell pool restored with PSEN1 L166A–APH1A; conditions: PSEN1 L166A (TM3)–APH1A cell pool; N = 3 to 4; mean (95% CI); decimal comma
T1 construct: expressed in transfected cells; host or cells: Psen1/2 double KO/Aph1ABC triple KO MEFs, pools without clonal selection
Method: (§1) We turned to experimental site–directed mutagenesis and selected a series of amino acids (Fig. 3) in the entrance channel for mutation to alanine. […] More importantly, they were all enzymatically active as shown by the secretion of Aβ40 in the supernatants of the cell cultures (Fig. 3B).
(§2) Conditional Psen1/2 double KO mice were crossed with conditional Aph1ABC triple KO mice ([29], [52], [58], [59]). At embryonic day 7.5, embryos were dissected and dissociated, and cells were plated in the presence of Dulbecco’s modified Eagle’s medium (DMEM)/F12 50% fetal calf serum (FCS) (Invitrogen). Primary MEFs were immortalized by transduction with LargeT antigen. Psen1/2 double KO/Aph1ABC triple KO MEFs were generated by transduction with a Cre-GFP–expressing adenoviral vector, and GFP-positive MEFs were sorted by fluorescence-activated cell sorting analysis. Psen1/2 Aph1ABC-deficient MEFs were maintained in DMEM/f12 10% FCS. […]
(§3) The number of plated cells and incubation times were determined in respect to linearity of Aβ peptide secretion, the dynamic range of Aβ peptide quantification in the medium, and sensitivity to dimethylsulfoxide (DMSO). […] The cell viability was assessed using the CellTiter-Glo Luminescent assay (Promega) that measures ATP production. […] We however measured five compounds at the Leuven site and noticed that absolute IC50 values were different (Fig. S2). […]

[2] = target: T2, PSEN1 S169A–APH1A γ-secretase complex (Homo sapiens, UniProt P49768, S169A); experiment: Aβ40 secretion, MEF cell pool restored with PSEN1 S169A–APH1A; conditions: PSEN1 S169A (TM3)–APH1A cell pool; N = 3 to 4; mean (95% CI); decimal comma
T2 construct: expressed in transfected cells; host or cells: Psen1/2 double KO/Aph1ABC triple KO MEFs, pools without clonal selection
Method: as §1, §2, §3

[3] = target: T3, PSEN1 S170A–APH1A γ-secretase complex (Homo sapiens, UniProt P49768, S170A); experiment: Aβ40 secretion, MEF cell pool restored with PSEN1 S170A–APH1A; conditions: decimal comma; for IC50: PSEN1 S170A (TM3)–APH1A cell pool, N = 3 to 4, mean (95% CI)
T3 construct: expressed in transfected cells; host or cells: Psen1/2 double KO/Aph1ABC triple KO MEFs, pools without clonal selection
Method: as §1
(§4) Conditional Psen1/2 double KO mice were crossed with conditional Aph1ABC triple KO mice ([29], [52], [58], [59]). At embryonic day 7.5, embryos were dissected and dissociated, and cells were plated in the presence of Dulbecco’s modified Eagle’s medium (DMEM)/F12 50% fetal calf serum (FCS) (Invitrogen). Primary MEFs were immortalized by transduction with LargeT antigen. Psen1/2 double KO/Aph1ABC triple KO MEFs were generated by transduction with a Cre-GFP–expressing adenoviral vector, and GFP-positive MEFs were sorted by fluorescence-activated cell sorting analysis. Psen1/2 Aph1ABC-deficient MEFs were maintained in DMEM/f12 10% FCS. To rescue γ-secretase expression, Psen1/2 double KO/Aph1ABC triple KO MEFs were transduced using Murine Stem Cell Virus retroviral vector system (pMSCV) viral vectors (Clontech) containing the human coding sequences of the different PSEN and APH1 homologs and the zeocin selection marker. An Internal Ribosome Entry Site sequence was cloned between the coding sequences for PSEN and APH1 to ensure co-expression of both proteins. Stable transfected cell lines were selected using 500-μg/ml zeocin (Invitrogen). Four different combinations were made: PSEN1 and APH1AL, PSEN1 and APH1B, PSEN2 and APH1AL, and PSEN2 and APH1B. These cell lines were transduced with pMSCV viral vectors (Clontech) expressing APP-C99-GFP-puromycin. […]
as §3

[4] = target: T4, PSEN1 M233A–APH1A γ-secretase complex (Homo sapiens, UniProt P49768, M233A); experiment: Aβ40 secretion, MEF cell pool restored with PSEN1 M233A–APH1A; conditions: decimal comma; for IC50: PSEN1 M233A (TM5)–APH1A cell pool, N = 3 to 4, mean (95% CI)
T4 construct: expressed in transfected cells; host or cells: Psen1/2 double KO/Aph1ABC triple KO MEFs, pools without clonal selection
Method: as §1, §4, §3

| IC50 [1] | IC50 [2] | IC50 [3] | IC50 fold change to WT ([3]; PSEN1 S170A–APH1A cell pool) | IC50 [4] | IC50 fold change to WT ([4]; PSEN1 M233A–APH1A cell pool) | Compound |
| --- | --- | --- | --- | --- | --- | --- |
| 1.37 µM | 0.026 µM | 0.139 µM | 0,821 fold | 0.449 µM | 2,658 fold | C[C@H](NC(=O)Cc1cc(F)cc(F)c1)C(=O)N[C@H](C(=O)OC(C)(C)C)c1ccccc1 [DAPT] |
| 0.642 µM | 0.0078 µM | 0.132 µM |  | 0.462 µM |  | O=S(=O)(c1ccc(Cl)cc1)N1[C@H]2CC[C@@H]([C@H]1c1ccc(C(F)(F)F)cc1)[C@@H](O)C2 [(+)-9b] |
